Results on five molecules are retold here after patent US11173124B2, “Oral delivery of GLP-1 peptide analogs” (MEDIMMUNE LIMITED, priority 2017, dated 2021).

Structures are written as SMILES. ≈ marks a conversion by molar mass, not a printed value. Starred links: 1 amine or outer side, 2 acyl side, 3 side chain; linkers in the order of their positions; H or OH if unused. Non-standard residues stand in square brackets, D forms with d. Residues, ends and D or L forms follow the SMILES beside them. Groups on a side chain read outwards from the residue. ξ: configuration not given here. *: point of attachment. γGlu = O=C(O)[C@H](CCC(=O)[*:2])N[*:1]; Palmitoyl = CCCCCCCCCCCCCCCC(=O)*; ξαMeF = CC(N)(Cc1ccccc1)C(=O)O; Lauroyl = CCCCCCCCCCCC(=O)*; ξαMeK = CC(N)(CCCCN)C(=O)O; ξαMeS = CC(N)(CO)C(=O)O; AEEA = NCCOCCOCC(=O)O; Aib = CC(C)(N)C(=O)O A value given as a limit tells only on which side of the number the result lay.

A short description of data set [1]: physchem. From the text:
A known amount of the permeation enhancer, the peptide, or both were combined with increasing amounts of buffer until the permeation enhancer and/or the peptide were completely solubilized.

Data set [2] relates to Caco-2 cells. Kind of data set: Caco-2 study, Permeability (%) of lipidated peptides (Example 3). Type of data set: in vitro ADME, human. The conditions noted are these: 0.1 mg/mL peptide. From the text: The Caco-2 cell line is a continuous cell line of heterogeneous human epithelial colorectal adenocarcinoma cells, which when cultured under specific conditions, become differentiated and polarized such that their phenotype, morphologically and functionally, resembles the enterocytes lining the small intestine. Caco-2 cells express tight junctions, microvilli, and a number of enzymes and transporters that are characteristic of such enterocytes. Caco-2 cells are most commonly used as a tight junction monolayer that provides a physical and biochemical barrier to the passage of drugs and thus serves as an in vitro model of the human small intestinal mucosa to predict the absorption of orally administered drugs. Caco-2 permeability assays were performed by Cyprotex US, LLC (MA, USA) to assess the efficacy of different permeation enhancers. Caco-2 cells were grown on Transwell filters until a transepithelial electric resistance of ˜1000 ohms/cm^2 was achieved. The cells were incubated for three hours with media containing test samples on the apical (top) side of the cell layer, and with blank media on the basolateral (lower) side of the cell layer. Media from the apical and basolateral sides was collected separately after three hours and evaluated for the amount of peptide present on each side. Table 2 gives the permeability coefficient (Papp) of the various test samples, which include the SEQ ID NO:3 GLP-1 peptide in the presence of different excipients.
A following Caco-2 study was performed to evaluate the permeability of different peptides in the presence of various permeation enhancers. Permeability (%) was calculated by dividing the cumulative amount of molecules transported with the original loading amount. Concentrations of peptides in starting sample and apical and basal solutions after incubation for pre-determined periods were analyzed by HPLC. Sodium chenodeoxycholate at 25 mg/mL effected the highest permeability of each tested peptide (Table 4).

The nature of data set [3]: Third rat ID infusion study, stabilized peptides vs semaglutide (Example 6). The conditions noted are these: in vivo. The protocol: The third rat ID infusion study was performed to compare bioavailability of stabilized peptides MEDI7219 (SEQ ID NO:2) and SEQ ID NO:6 with that of semaglutide, H-His-Aib-[…]AEEAc-AEEAc-γ-Glu-17-carboxyheptadecanoyl)-[…]OH (SEQ ID NO:11), (Novo Nordisk), an un-stabilized GLP-1 peptide analog, that only has Aib in its sequence for protection from circulating DPP-IV peptidases, (Table 7 and FIG. 2B).

A short description of data set [4]: Canine tablet site of absorption study, SEQ ID NO:6 tablets in acid-resistant capsules or IntelliCap (Example 12). In kind it is in vivo. The following applies: dog; for Tmax / half-life / AUC(0-t) / Cmax: in vivo; for bioavailability: plasma. As to the method: A third site of absorption study was performed to evaluate the absorption sites and tablet formulations in acid-resistant capsules in canines. The tablet manufacturing process was as follows: All ingredients were passed through a US sieve #35 (0.5 mm opening), and the resultant powder was compacted using a pellet press. Compacted material was again passed through a US sieve #35 (0.5 mm opening) to form granules. […] Tablets in this study were either placed in acid-resistant capsules (Table 18, Groups 1 and 2) or in IntelliCap® (Table 18, Groups 3 and 4).

The nature of data set [5]: in vivo. The conditions noted are these: dog, po. From the text: The following materials and methods were used for quantitative measurements of GLP-1 peptide analogs in plasma (e.g., rat or dog plasma) in the Examples below. These methods used a SCIEX 6600 TripleTOF mass spectrometer coupled with a Shimadzu ultra-high performance liquid chromatography (UHPLC). The specificity of the method was ensured by the retention time, the selected mass for Single-Reaction-Monitoring (SRM) mode, and the selected fragment mass in MS/MS (MS^2) mode. […] The analytes of interest were analyzed from plasma, a complex biological matrix. Although protein precipitation using organic solvent can reduce matrix interference, significant background still persists. The high mass accuracy offered by the TripleTOF mass spectrometers further eliminated background noise, thus enhancing signal: noise (S/N) and allowing improved quantification.
The plasma extraction procedure used the following steps: • Samples, standards, and quality controls were incubated until they reached room temperature. They were then incubated at 60° C. for 2 minutes and cooled down to room temperature, vortexed, and spun down. • 70 μL of samples, standards, or quality controls were transferred into a 1 mL 96-well plate. • In each well, 420 uL of Precipitation Solution was added. The plate was sealed and shook for 10 minutes on a plate shaker at 600 rpm. • The plate was centrifuged at 18G, 2500 RFC, 20° C. for 10 minutes. • The plate was carefully removed, and the upper clear supernatant was extracted with a 200 uL multichannel pipette into a new 96-well protein lobind plate. The supernatant was extracted twice for each well, and the supernatants were combined. • The Plate was placed in TurboVap and the extracted supernatant was dried completely with heated (65° C.) Nitrogen gas at 60 Fahrenheit (Fh). • After the plate was completely dry, the plates were covered and incubated at room temperature for at least 30 minutes until the plate returned back to ambient temperature. • 150 μL of Reconstitution solution was added to each well. The plate was covered with a pierceable place seal and shaken at 600 rpm for 10 minutes. • The samples were submitted to the LC-MS/MS on the same day of Preparation
Quantification of the data obtained using the high resolution SCIEX 6600 instrument was then performed as follows: • For the quantification, extracted ion chromatograms (XIC) using 0.2 Da m/z extraction window centered on the accurate mass of each fragment ion were generated. Accurate mass was calculated from the structure of the compound. […] Concentrations of the target analyte in unknown samples were obtained by regression analysis using linear fits of peak areas vs. analyte concentration, weighted 1/(concentration). • The quality of the assay was controlled by the quality control samples. • Either Experiment 1 or Experiment 2 could be used for the quantification of the GLP-1 peptide analogs in high resolution mode.
MEDI7219 (SEQ ID NO:2) formulations were studied in the following canine study, which was designed to compare different tablet delivery systems and peptides in enterically coated tablet formulation compositions delivered orally. […]
The efficacy of sodium caprate as a permeation enhancer was also evaluated.

The test system of data set [6] is Gastrointestinal (GI) tract tissues. In words: Microscopic evaluation of gastrointestinal tract tissues after intraduodenal dosing (Example 4). In kind it is in vivo. The following applies: rat, following administration of 50 mg/kg sodium caprate.
The mark [7] stands for this setting: canine, Intravenous, 0.031 mg/kg, 0.031 mg/mL peptide in Tris Mannitol, pH 8.0.
Setting [8] is: canine, Oral IntelliCap released in proximal colon, 0.96 mg/kg, 10 mg peptide, 100 mg Na CDC, 50 mg PG tablet.
Where [9] appears, read: canine, Oral, 0.54 mg/kg, 5 mg peptide, 100 mg Na CDC, 50 mg PG tablet in Acid-resistant capsule.
Where [10] appears, read: canine, Oral, 1.08 mg/kg, 10 mg peptide, 100 mg Na CDC, 50 mg PG tablet in Acid-resistant capsule.

Consider `CCCOC(=O)c1cc(O)c(O)c(O)c1` [Propyl Gallate], for which the solubility in data set [1] (pH 5, aqueous buffer, thermodynamic from solid) is 3 mg/mL (≈ 14.1 mM); in data set [1] (pH 6, aqueous buffer, thermodynamic from solid), 3 mg/mL (≈ 14.1 mM); in data set [1] (pH 7), 3.3 mg/mL (≈ 15.6 mM); in data set [1] (pH 7.5, aqueous buffer, thermodynamic from solid), less than 0.25 mg/mL; in data set [1] (pH 8, aqueous buffer, thermodynamic from solid) it was less than 0.25 mg/mL; in data set [1] (pH 9, aqueous buffer, thermodynamic from solid) it was less than 0.25 mg/mL. Besides, the “solubility as a function of pH (in words)” value in data set [1] (pH 7.5) was “low solubility at pH 7.5 and above”.
Regarding `CCCCCCCCCCCC(=O)N[C@@H](CCC(=O)NCCOCCOCC(=O)NCCOCCOCC(=O)NCCCC[C@H](NC(=O)[C@H](C)NC(=O)[C@@H](NC(=O)[C@H](Cc1ccccc1)NC(=O)[C@H](CCC(=O)O)NC(=O)C(C)(CCCCN)NC(=O)[C@H](C)NC(=O)[C@H](C)NC(=O)[C@H](CCC(=O)O)NC(=O)CNC(=O)[C@H](CCC(=O)O)NC(=O)[C@H](CC(C)C)NC(=O)[C@H](CCCCNC(=O)COCCOCCNC(=O)COCCOCCNC(=O)CC[C@H](NC(=O)CCCCCCCCCCC)C(=O)O)NC(=O)[C@H](CO)NC(=O)C(C)(CO)NC(=O)[C@@H](NC(=O)[C@H](CC(=O)O)NC(=O)[C@H](CO)NC(=O)[C@@H](NC(=O)C(C)(Cc1ccccc1)NC(=O)[C@H](CO)NC(=O)CNC(=O)[C@H](CCC(=O)O)NC(=O)C(C)(C)NC(=O)[C@@H](N)Cc1c[nH]cn1)[C@@H](C)O)C(C)C)[C@@H](C)CC)C(=O)N[C@H](C(=O)N[C@H](C(=O)N[C@@H](CCC(=O)O)C(=O)NCC(=O)NCC(N)=O)C(C)C)C(C)C)C(=O)O` (stereo partly shown) [SEQ ID NO: 6, Free-H-[AIB]-EGS-[αMePhe]-TSDV-[αMeSer]-SK[(PEG2)2-γE-Lauroyl]-LEGEAA-[αMeLys]-EFIAK[(PEG2)2-γE-Lauroyl]-VVEGG-amide] (H-H[Aib]EGS[ξαMeF]TSDV[ξαMeS]SK([AEEA-AEEA-γGlu-Lauroyl])LEGEAA[ξαMeK]EFIAK([AEEA-AEEA-γGlu-Lauroyl])VVEGG-NH2), the “Permeability (%)” value in data set [2] (5.0 mg/mL Sodium Chenodeoxycholate) came to 1.21%; in data set [2] (25 mg/mL Sodium Chenodeoxycholate) it was 13.3%. Moreover, the F result is given as “significantly higher absolute bioavailability via ID route than semaglutide” in data set [3] and 100% in data set [3] (iv, 0.01 mg/kg). Besides, the half-life in data set [3] was 9 h; in data set [3] (iv, 0.01 mg/kg), 9.2 h; in data set [4] (po, […]) it was 6.76 h; in data set [4] (setting [7]), 7.21 h; in data set [4] (setting [8]), 5.37 h; in data set [4] (setting [9]) it was 6.99 h. Besides, in data set [4] (setting [10]), the half-life is 6.31 h. Further, the bioavailability in data set [3] (1 mg/kg) was 1.2%; in data set [4] (po, […]), 2.46%; in data set [4] (setting [8]), 2.79%; in data set [4] (setting [9]), 1.3%; in data set [4] (setting [10]) it was 3.63%. The molecule also came in with an AUC in data set [3] (iv, 0.01 mg/kg) of 1.07 µg·h/mL. For the same molecule, the Cmax in data set [3] (iv, 0.01 mg/kg) was 0.211 µg/mL; in data set [4] (setting [7]) it was 0.0273 µg/mL; in data set [4] (setting [8]), 0.21 µg/mL; in data set [4] (setting [9]), 0.0473 µg/mL; in data set [4] (setting [10]), 0.279 µg/mL. Besides, the Tmax was 0.857 h in data set [4] (po, […]); 0.444 h in data set [4] (setting [7]); 2.14 h in data set [4] (setting [8]); 1.64 h in data set [4] (setting [9]); 1.79 h in data set [4] (setting [10]). For the same molecule, the AUC(0-t) was 0.147 ± 0.0199 µg·h/mL in data set [4] (setting [7]), 1.49 µg·h/mL in data set [4] (setting [8]), 0.325 ± 0.467 µg·h/mL in data set [4] (setting [9]) and 1.97 µg·h/mL in data set [4] (setting [10]).
In the case of `CCCCCCCCCCCCCCCC(=O)N[C@@H](CCC(=O)NCCOCCOCC(=O)NCCOCCOCC(=O)NCCCC[C@H](NC(=O)[C@H](C)NC(=O)[C@@H](NC(=O)C(C)(Cc1ccccc1)NC(=O)[C@H](CCC(=O)O)NC(=O)C(C)(CCCCN)NC(=O)[C@H](C)NC(=O)[C@H](C)NC(=O)[C@H](CCC(=O)O)NC(=O)CNC(=O)[C@H](CCC(=O)O)NC(=O)[C@H](CC(C)C)NC(=O)[C@H](CCCCNC(=O)COCCOCCNC(=O)COCCOCCNC(=O)CC[C@H](NC(=O)CCCCCCCCCCCCCCC)C(=O)O)NC(=O)[C@H](CO)NC(=O)C(C)(CO)NC(=O)[C@@H](NC(=O)[C@H](CC(=O)O)NC(=O)[C@H](CO)NC(=O)[C@@H](NC(=O)C(C)(Cc1ccccc1)NC(=O)[C@H](CO)NC(=O)CNC(=O)[C@H](CCC(=O)O)NC(=O)C(C)(C)NC(=O)[C@@H](N)Cc1c[nH]cn1)[C@@H](C)O)C(C)C)[C@@H](C)CC)C(=O)N[C@H](C(=O)N[C@H](C(=O)N[C@@H](CCC(=O)O)C(=O)NCC(=O)NCC(N)=O)C(C)C)C(C)C)C(=O)O` (stereo partly shown) [SEQ ID NO: 10, Free-H-[AIB]-EGS-[αMePhe]-TSDV-[αMeSer]-SK[(PEG2)2-γE-Palmitoyl]-LEGEAA-[αMeLys]-E-[αMePhe]-IAK[(PEG2)2-γE-Palmitoyl]-VVEGG-amide] (H-H[Aib]EGS[ξαMeF]TSDV[ξαMeS]SK([AEEA-AEEA-γGlu-Palmitoyl])LEGEAA[ξαMeK]E[ξαMeF]IAK([AEEA-AEEA-γGlu-Palmitoyl])VVEGG-NH2), in data set [5], the AUC was 23.7 µg·h/mL, the PK variability was determined as 52.3% and the half-life was 33 h.
As to `C[C@H](CCC(=O)[O-])[C@H]1CC[C@H]2[C@@H]3[C@H](O)C[C@@H]4C[C@H](O)CC[C@]4(C)[C@H]3CC[C@]12C.[Na+]` [Sodium Chenodeoxycholate], in data set [1] (pH 5.5), the solubility is recorded as greater than 200 mg/mL.
Turning to `CCCCCCCCCC(=O)[O-].[Na+]` [sodium caprate], the “Gastrointestinal (GI) tract tissues upon microscopic evaluation” value in data set [6] is listed as “looked normal”.
